Consider 13 compounds from PubChem BioAssay (NCI).

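In this assay, cells in 96-well plates receive the compound at five concentrations for 48 hours. Endpoints are linearly interpolated between the surrounding concentrations. Here, GI50 denotes the concentration required for 50% inhibition of growth. At the TGI there is no net growth.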

Some test systems named below: CAKI-1 renal; CCRF-CEM leukemia; DU-145 prostate; HCT-116 colon; NCI/ADR-RES ovarian; OVCAR-5 ovarian; RXF 393 renal; SK-MEL-2 melanoma; SK-MEL-28 melanoma; UO-31 renal.
What all share (assay): NCI tumour cell line growth inhibition, 48 h

Consider `COc1cc(O)c2c(=O)c(OC)c(-c3ccc4c(c3)OCO4)oc2c1OC`, for which the TGI with CAKI-1 renal, in the assay with CCRF-CEM leukemia, with DU-145 prostate, with HCT-116 colon, with NCI/ADR-RES ovarian and in the assay on OVCAR-5 ovarian was greater than 50 µM in each case. Further, the TGI in the assay on RXF 393 renal, in the assay with SK-MEL-2 melanoma, in the assay with SK-MEL-28 melanoma and in the assay with UO-31 renal was greater than 50 µM each time.
On to `CC(=O)NC(C)c1ccc(N=NN2CCCC2)cc1` (stereo unspecified), for which the TGI in the assay on CAKI-1 renal, with CCRF-CEM leukemia, in the assay with DU-145 prostate, in the assay with HCT-116 colon, in the assay on NCI/ADR-RES ovarian and in the assay with OVCAR-5 ovarian was greater than 100 µM throughout. Besides, the TGI in the assay on RXF 393 renal, in the assay with SK-MEL-2 melanoma, in the assay with SK-MEL-28 melanoma and with UO-31 renal was greater than 100 µM throughout.
For `COC12OC3CC4(C)C(=CC3OC(OC(C)C1O)C2O)CCC1C4CCC2(C)C(c3ccc(=O)oc3)CCC12O` (stereo unspecified), the TGI worked out at 0.00849 µM in the assay with CAKI-1 renal; 0.00208 µM in the assay on CCRF-CEM leukemia; 0.00209 µM in the assay on DU-145 prostate; 0.00193 µM with HCT-116 colon; 0.00258 µM in the assay on NCI/ADR-RES ovarian; 0.00327 µM in the assay with OVCAR-5 ovarian. The TGI in the assay with RXF 393 renal came out at 0.0116 µM; with SK-MEL-2 melanoma, 0.00448 µM; with SK-MEL-28 melanoma, 0.0434 µM; in the assay on UO-31 renal it was 0.00457 µM.
Consider `NC(=O)C[C@H](NC(=O)C1(NC(=O)[C@H](Cc2ccc(CP(=O)(O)O)cc2)NC(=O)C(=O)O)CCCCC1)C(=O)NCCCc1cccc2ccccc12`, for which the TGI in the assay on CAKI-1 renal, with CCRF-CEM leukemia, with DU-145 prostate, in the assay with HCT-116 colon, in the assay with NCI/ADR-RES ovarian and in the assay on OVCAR-5 ovarian was greater than 10 µM throughout. The TGI with RXF 393 renal, in the assay with SK-MEL-2 melanoma, in the assay on SK-MEL-28 melanoma and in the assay on UO-31 renal was greater than 10 µM throughout.
For `O=S(=O)(O)c1cc(Nc2ccnc3ccccc23)c2c(S(=O)(=O)O)cc(S(=O)(=O)O)cc2c1`, the TGI with CAKI-1 renal, in the assay on CCRF-CEM leukemia, in the assay on DU-145 prostate, in the assay with HCT-116 colon, with NCI/ADR-RES ovarian and in the assay with OVCAR-5 ovarian was greater than 100 µM each time. For the same compound, the TGI in the assay with RXF 393 renal, in the assay on SK-MEL-2 melanoma, in the assay with SK-MEL-28 melanoma and in the assay on UO-31 renal was greater than 100 µM in each case.
As for `COc1ccc2oc(=Nc3ccc(F)cc3)c(C(N)=O)cc2c1`, the TGI in the assay on CAKI-1 renal, in the assay on CCRF-CEM leukemia, in the assay on DU-145 prostate, with HCT-116 colon, in the assay on NCI/ADR-RES ovarian and with OVCAR-5 ovarian was greater than 100 µM in each case. In addition, the TGI in the assay on RXF 393 renal is 37.3 µM; in the assay on SK-MEL-2 melanoma, 74.7 µM; in the assay on SK-MEL-28 melanoma, greater than 100 µM; with UO-31 renal it was greater than 100 µM.
`CN(C)CCNC(=O)c1cccc2[nH]c(-c3ccncc3)nc12`: the TGI is 5.95 µM with CAKI-1 renal; 7.77 µM in the assay on CCRF-CEM leukemia; greater than 100 µM in the assay on DU-145 prostate; 9.82 µM with HCT-116 colon; greater than 100 µM in the assay with NCI/ADR-RES ovarian; 34.1 µM in the assay with OVCAR-5 ovarian. The TGI is 14.5 µM in the assay with RXF 393 renal, 11.5 µM in the assay on SK-MEL-2 melanoma, 3.93 µM in the assay on SK-MEL-28 melanoma and 6.76 µM in the assay on UO-31 renal.
For the compound `CCCC(=O)Nc1cc(/C=C/C(=O)N2CC(CCl)c3c2cc([N+](=O)[O-])c2ccccc32)n(C)c1` (stereo unspecified), the TGI with CAKI-1 renal, in the assay on CCRF-CEM leukemia, with DU-145 prostate, in the assay on HCT-116 colon, with NCI/ADR-RES ovarian and in the assay on OVCAR-5 ovarian was greater than 100 µM each time. In addition, the TGI with RXF 393 renal, with SK-MEL-2 melanoma, in the assay on SK-MEL-28 melanoma and in the assay on UO-31 renal was greater than 100 µM throughout.
Take `COc1ccc(N2C(N)=C(C#N)C(C#N)(C#N)C2c2cccc([N+](=O)[O-])c2)cc1` (stereo unspecified): the TGI was 23.4 µM in the assay on CAKI-1 renal; greater than 24.6 µM in the assay with CCRF-CEM leukemia; 31.7 µM in the assay on DU-145 prostate; 23.8 µM in the assay with HCT-116 colon; 43.2 µM in the assay on NCI/ADR-RES ovarian; 34.5 µM with OVCAR-5 ovarian. Besides, the TGI with RXF 393 renal came out at 23.6 µM; in the assay with SK-MEL-2 melanoma it was 33.2 µM; in the assay on SK-MEL-28 melanoma, 23.6 µM; with UO-31 renal, 31.3 µM.
For `CCOc1cc2c(cc1O)CC[C@@H]1[C@@H]2CC[C@]2(C)C(OS(=O)OC3CC[C@@H]4[C@H]5CCc6cc(O)c(OCC)cc6[C@@H]5CC[C@@]34C)CC[C@@H]12` (stereo partly specified), the TGI with CAKI-1 renal was 26 µM; with CCRF-CEM leukemia it was greater than 100 µM; in the assay on DU-145 prostate it was 11.5 µM; in the assay on HCT-116 colon, greater than 39.6 µM; in the assay with NCI/ADR-RES ovarian, 23.7 µM; with OVCAR-5 ovarian it was greater than 57.8 µM. The TGI in the assay on RXF 393 renal is greater than 20.5 µM; in the assay on SK-MEL-2 melanoma it was 6.19 µM; with SK-MEL-28 melanoma it was 11.7 µM; with UO-31 renal, 27.4 µM.
For `COC(=O)C(Cc1ccccc1)NC(=O)c1ccc(CNC(=S)NCc2cccc(CNC(=S)NCc3ccccc3)c2)cc1` (stereo unspecified), the TGI in the assay with CAKI-1 renal, with CCRF-CEM leukemia, in the assay on DU-145 prostate, in the assay with HCT-116 colon, with NCI/ADR-RES ovarian and in the assay on OVCAR-5 ovarian was greater than 62.5 µM each time. Also, the TGI with RXF 393 renal, with SK-MEL-2 melanoma, with SK-MEL-28 melanoma and in the assay with UO-31 renal was greater than 62.5 µM throughout.
On to `O=[N+]([O-])c1ccc2nc(/C=C(\O)c3ccccc3)c(/C=C(\O)c3ccccc3)nc2c1`, for which the TGI with CAKI-1 renal is greater than 79 µM; in the assay with CCRF-CEM leukemia it was 35.8 µM; in the assay with DU-145 prostate it was greater than 91 µM; with HCT-116 colon, greater than 37.8 µM; in the assay with NCI/ADR-RES ovarian, greater than 89 µM; in the assay on OVCAR-5 ovarian, greater than 100 µM. The TGI is 38.2 µM with RXF 393 renal, greater than 82.2 µM in the assay on SK-MEL-2 melanoma, greater than 100 µM in the assay with SK-MEL-28 melanoma and 31.6 µM with UO-31 renal. The GI50 with SK-MEL-28 melanoma is 8.3 µM.
As for `CCNc1cc2c3c(c1)CCCN3CCC2`, the TGI with CAKI-1 renal is greater than 100 µM; in the assay on CCRF-CEM leukemia it was 6.43 µM; with DU-145 prostate, greater than 100 µM; in the assay on HCT-116 colon it was 19.2 µM; in the assay on NCI/ADR-RES ovarian it was 52.2 µM; with OVCAR-5 ovarian it was 45.1 µM. Besides, the TGI with RXF 393 renal was greater than 100 µM; with SK-MEL-2 melanoma, 30 µM; in the assay with SK-MEL-28 melanoma it was 87.5 µM; in the assay with UO-31 renal it was greater than 100 µM.
